Columns and labels:
Assay type in all cases: cell-based, human
[1] = test system: SK-MEL-5 cells; experiment: Cell proliferation (resazurin) assay; conditions: 48 hr
[2] = test system: MALME-3M cells; experiment: Cell proliferation (resazurin) assay; conditions: 48 hr
Method: For hGH treatment, 16 hours after seeding (or 24 hours post-transfection), the cells were serum-starved for 2 hours in serum-free growth media, and hGH (phosphate buffered saline was used as control where applicable) was added at the noted concentrations (0-, 5-, 50-, and 150 ng/ml). Cells were subsequently incubated for 24 hours before evaluating RNA levels. Recombinant hGH was purchased from Antibodies Online (#ABIN2017921, Atlanta, Ga.).
On the other hand, a pronounced drop in proliferation levels in all the cell lines was seen when GHR was knocked down. […] Cell proliferation was estimated using resazurin-based metabolic assay. […] Averages of at least four independent experiments performed in quadruplicate were taken [*, p<0.05, Students t-test]. The results may indicate that human melanoma cells utilize GH-GHR interaction to drive aggressive tumor phenotypes.
To determine this, and referring now to FIGS. 35A-35D, changes in amounts of calcein retained inside cells following treatment with calcein-AM ester was analyzed by the fluorescence readout from intracellular calcein. Increased abundance of transporter pumps is reflected by decreased levels of intracellular calcein. […] Assays were performed 48 hr. post-transfection with either scr-siRNA or GHR-siRNA. […] SK-MEL-28 (FIG. 35C) and MALME-3M (FIG. 35D) cells were exposed to DMSO (vehicle), or 10 um cisplatin (Cis), or 5 nM paclitaxel (Pac) for 24 hr. Treatments were done 48 hr. post-transfection with either scr-siRNA (scr) or GHR-siRNA (GHR). Mean of three independent experiments performed in triplicate was taken. [*, p<0.05, Students t test, n=3]

[3] = test system: HepG2 cells; experiment: RT-qPCR after GH / GHR-antagonist treatment; conditions: 3 days
Method: Following treatments, cells were lysed, and RNA extraction was performed using IBI Tri-isolate kit (IBI), following manufacturer's protocol. RT-qPCR was performed as described previously.
And so, the inventors performed a similar experiment with HepG2 and SK-HEP-1 human liver cancer cells, which have been extensively studied and known to express GHR, to verify this observation in human melanoma cells. In vitro, HepG2 cells were treated for 3 days with either 50 ng/mL GH (2.5 nM), or 50 nM […], or both GH and GHR-antagonist, and their RNA expressions were compared against untreated controls at basal condition (i.e. no drug treatment).
The inventors had previously shown that knock-down of GHR in turn strongly attenuates MET as well as HGF transcript levels in human melanoma. To verify this observation in another GHR expressing human cancer like HCC, the inventors analyzed the effects of GH and GHR-antagonist treatment on the expression of the oncogenic HGF-MET loop in human liver cancer cells. HepG2 and SK-HEP-1 cells were treated for 3 days with either 50 ng/mL GH (2.5 nM), or 50 nM GHR-antagonist, or both, and their RNA expressions were compared against untreated controls at basal levels (i.e. no drug treatment). No additional effect of added GH on the expression levels of HGF or MET in the liver cancer cell lines was observed, except a 2-fold increase in MET levels in SK-HEP-1 cells (FIG. 39). […] Irrespective of presence of added GH, the antagonist lowered HGF levels by >4-fold in Hep-G2 cells and up to 2-fold in SK-HEP-1 cells; while the MET levels were decreased by >2-fold in both Hep-G2 and SK-HEP-1 cells compared to the GH treated samples (FIG. 39). This observed nature of the suppressive effect of GHR-antagonist strongly indicates the existence of a autocrine/paracrine GH action in HCC, as the inventors had found stable GH expression in both Hep-G2 and SK-HEP-1 cells.

[4] = test system: Hep-G2 and SK-HEP-1 cells; experiment: Time-lapse WB of GH-regulated signaling pathways; conditions: 50 ng/mL GH; within 20 minutes
Method: Following treatments, cells were lysed by mild sonication in Ripa lysis buffer as described previously. SDS-PAGE and western-blot was performed using general lab-techniques as described previously.

## hGH: Recombinant human growth hormone, Antibodies Online #ABIN2017921
[1]; 50 ng/ml hGH
  Cell proliferation induced by hGH-excess (increase): 10%
[1]; 150 ng/mL hGH
  increase in proliferation: 22%
[2]; 50 ng/ml hGH
  Cell proliferation induced by hGH-excess (increase): 248%
[2]; 150 ng/mL hGH
  increase in proliferation: more than 300%
[3]; 50 ng/mL GH
  RNA level of CDH1, the epithelial marker: downregulating
  RNA levels of mesenchymal marker vimentin: significantly upregulate
[3]; exogenous GH 50 ng/mL
  levels of ABCC4 and of the transcription factor SPI-B: markedly upregulated
[4]
  phosphorylation states of STAT3, STAT5, SRC, and ERK1/2 (p44/42 MAPK): increased significantly

From US11473088B2, “Method of treating cancer and method of sensitizing cancer cells to the action of chemotherapeutic agents via growth hormone receptor antagonists or knock down” (Ohio University, priority 2016, dated 2022)
